Data published in patent publication US12037344B2, “NLRP3 modulators” (INNATE TUMOR IMMUNITY, INC., priority 2018, dated 2024).
Where two headings read alike, the source gives them in different places.

Assays:
[1] = target: T1, TLR8 (Homo sapiens, UniProt Q9NR97); assay: In vitro human TLR8 binding reporter assay (HEK-Blue, NF-kB/AP1-inducible SEAP); type: cell-based; conditions: read-out: TLR8 Agonist EC50
T1 construct: human HEK-Blue cells co-expressing a TLR7 or TLR8 gene
T1 sequence (Q9NR97 27-1041): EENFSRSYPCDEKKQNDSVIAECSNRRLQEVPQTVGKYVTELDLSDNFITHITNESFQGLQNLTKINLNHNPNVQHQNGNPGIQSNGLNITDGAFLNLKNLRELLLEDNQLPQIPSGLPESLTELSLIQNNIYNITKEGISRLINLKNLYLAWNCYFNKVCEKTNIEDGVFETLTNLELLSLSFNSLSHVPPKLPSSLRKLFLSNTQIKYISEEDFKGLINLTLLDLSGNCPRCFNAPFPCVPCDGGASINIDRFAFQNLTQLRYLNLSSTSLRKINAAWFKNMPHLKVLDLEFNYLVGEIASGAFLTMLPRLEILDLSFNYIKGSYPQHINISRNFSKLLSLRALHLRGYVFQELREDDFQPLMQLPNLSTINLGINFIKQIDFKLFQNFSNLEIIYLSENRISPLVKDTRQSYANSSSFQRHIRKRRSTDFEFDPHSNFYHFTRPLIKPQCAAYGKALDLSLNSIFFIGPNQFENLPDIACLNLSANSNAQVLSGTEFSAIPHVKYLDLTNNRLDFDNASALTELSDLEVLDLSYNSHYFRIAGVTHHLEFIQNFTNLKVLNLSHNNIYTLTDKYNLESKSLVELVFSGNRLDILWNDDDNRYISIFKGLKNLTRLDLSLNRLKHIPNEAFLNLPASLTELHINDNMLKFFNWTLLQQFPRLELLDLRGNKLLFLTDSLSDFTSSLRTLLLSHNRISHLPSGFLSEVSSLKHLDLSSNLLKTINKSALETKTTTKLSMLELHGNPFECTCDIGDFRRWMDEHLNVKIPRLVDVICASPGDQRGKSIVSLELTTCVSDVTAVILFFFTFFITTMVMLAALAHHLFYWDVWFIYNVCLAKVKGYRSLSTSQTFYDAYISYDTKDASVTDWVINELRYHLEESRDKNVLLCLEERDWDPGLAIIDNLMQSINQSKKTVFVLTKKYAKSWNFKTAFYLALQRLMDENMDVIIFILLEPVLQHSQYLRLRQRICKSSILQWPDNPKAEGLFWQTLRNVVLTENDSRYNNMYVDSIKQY
How it was run: (§1)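 HEK-Blue cells expressing human TLR7 or TLR8 with NF-kB/AP1-inducible SEAP reporter, plated 24 h, then compound-treated 18 h at 37° C, 5% CO2. EC50 normalized to 100% Ymax set by 50 μM reference standard.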

[2] = tested on: THP-1 cells; assay: Measurement of IL-1β production, hTRF protocol (second alternative procedure), THP-1 cells; type: cell-based, human; conditions: read-out: NLRP3 hILIB EC50
How it was run: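 Compounds, dilution series starting at a final 10 μM, were incubated 2 hours at 37° C with PMA-differentiated THP-1 cells (50 ng/ml overnight; 50,000 cells/well, 2% FBS RPMI). Released IL-1β quantified in supernatant by hTRF kit with 1:40 antibody dilution, 4° C overnight, 665/615 nm ratio.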

[3] = target: T2, TLR7 (Homo sapiens, UniProt Q9NYK1); assay: In vitro human TLR7 binding reporter assay (HEK-Blue, NF-kB/AP1-inducible SEAP); type: cell-based; conditions: read-out: TLR7 Agonist EC50
T2 construct: human HEK-Blue cells co-expressing a TLR7 or TLR8 gene
T2 sequence (Q9NYK1 27-1049): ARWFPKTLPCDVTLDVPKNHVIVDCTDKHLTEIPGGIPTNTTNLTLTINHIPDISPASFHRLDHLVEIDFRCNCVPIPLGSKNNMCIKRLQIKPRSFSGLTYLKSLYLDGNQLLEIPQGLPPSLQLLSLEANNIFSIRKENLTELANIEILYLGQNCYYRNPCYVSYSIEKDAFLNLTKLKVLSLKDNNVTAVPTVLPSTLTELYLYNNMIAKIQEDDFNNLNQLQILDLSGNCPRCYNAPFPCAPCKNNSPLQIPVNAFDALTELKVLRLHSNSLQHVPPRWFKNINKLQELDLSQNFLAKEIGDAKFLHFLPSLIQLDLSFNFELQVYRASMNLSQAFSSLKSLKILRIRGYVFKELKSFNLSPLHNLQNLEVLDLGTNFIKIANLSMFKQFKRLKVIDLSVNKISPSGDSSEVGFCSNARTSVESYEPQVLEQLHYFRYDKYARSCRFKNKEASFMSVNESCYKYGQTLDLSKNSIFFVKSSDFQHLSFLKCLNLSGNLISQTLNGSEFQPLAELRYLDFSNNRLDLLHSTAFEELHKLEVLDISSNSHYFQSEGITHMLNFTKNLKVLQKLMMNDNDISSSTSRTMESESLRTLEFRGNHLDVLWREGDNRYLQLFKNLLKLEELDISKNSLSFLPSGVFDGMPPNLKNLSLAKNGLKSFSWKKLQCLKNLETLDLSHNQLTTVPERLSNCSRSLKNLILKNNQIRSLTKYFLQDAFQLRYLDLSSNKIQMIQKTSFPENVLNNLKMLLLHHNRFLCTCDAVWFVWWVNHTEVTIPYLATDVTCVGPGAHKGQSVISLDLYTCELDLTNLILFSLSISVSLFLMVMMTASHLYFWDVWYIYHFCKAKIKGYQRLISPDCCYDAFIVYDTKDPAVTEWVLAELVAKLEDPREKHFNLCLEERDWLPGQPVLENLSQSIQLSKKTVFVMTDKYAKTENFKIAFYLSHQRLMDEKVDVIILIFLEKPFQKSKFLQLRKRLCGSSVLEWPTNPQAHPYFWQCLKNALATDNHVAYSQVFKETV
How it was run: as §1

[4] = Homo sapiens, THP-1, IL-1β production, human
[5] = Homo sapiens, THP-1, IL-1β production, human cells

Row | EC50 ([1]; activity range class) [µM] | EC50 [2, 4] [µM] | EC50 ([3]; activity range class) [µM] | EC50 ([1]; activity range) [µM] | EC50 [2, 5] [µM] | EC50 ([3]; activity range) [µM] | EC50 ([2]; IL-1β production, human) [µM] | Structure (SMILES)
1 | > 100 | 0.08 | > 100 | – | – | – | – | N#CCCCn1cc2c(N)nc3cc(-c4cc[nH]n4)ccc3c2n1 [Example 392]
2 | – | – | – | > 100 | 0.4 | > 100 | – | CC(C)(O)CCn1cc2c(n1)c(N)nc1cc(-c3ccn[nH]3)ccc12 [Example 452]
3 | – | – | – | > 100 | 0.27 | > 100 | – | CO[C@@H](CO)Cn1cc2c(n1)c(N)nc1cc(-c3cc[nH]n3)ccc12 [Example 459]
4 | – | – | – | > 100 | 4.35 | > 100 | – | COC1CCN(CCn2ncc3c(N)nc4cc(-c5cc[nH]n5)ccc4c32)C1 (stereo not drawn) [Example 434]
5 | – | – | – | > 100 | 1.89 | > 100 | – | Nc1nc2cc(-c3cc[nH]n3)ccc2c2[nH]c(CCNC(=O)C3CCCCO3)cc12 (stereo not drawn) [Example 415]
6 | > 100 | 0.45 | > 100 | – | – | – | – | Nc1nc2cc(-c3cc[nH]n3)ccc2c2cn(CCNC(=O)c3ncccc3F)nc12 [Example 53]
7 | > 100 | 1.29 | > 100 | – | – | – | – | CN(C)CCn1cc2c(N)nc3cc(-c4ccn[nH]4)ccc3c2n1 [Example 261]
8 | > 100 | – | > 100 | – | – | – | 0.72 | Nc1nc2cc(-c3cc[nH]n3)ccc2c2nn(C3CCOC3)cc12 (single isomer, unassigned) [Example 238]
9 | > 100 | 0.27 | > 100 | – | – | – | – | CCOCCn1cc2c(N)nc3cc(-c4cc[nH]n4)ccc3c2n1 [Example 222]
10 | – | – | – | > 100 | 1.68 | > 100 | – | NC(=O)CCCn1cc2c(N)nc3cc(-c4cc[nH]n4)ccc3c2n1 [Example 502]
11 | – | – | – | > 100 | 0.6 | > 100 | – | Nc1nc2cc(-c3cc[nH]n3)ccc2c2cn(CC(=O)NCC(F)F)nc12 [Example 538]
12 | > 100 | 0.88 | > 100 | – | – | – | – | Nc1nc2cc(-c3cc[nH]n3)ccc2c2nn(C[C@@H]3CCC(=O)N3)cc12 [Example 384]
13 | > 100 | 0.98 | > 100 | – | – | – | – | Nc1nc2cc(-c3cc[nH]n3)ccc2c2cn(CCCc3cccnc3)nc12 [Example 26]
14 | – | – | – | > 100 | 0.45 | > 100 | – | COCCn1cc2c(N)nc3cc(-c4cc[nH]n4)c(F)cc3c2n1 [Example 406]
15 | > 100 | 1.44 | > 100 | – | – | – | – | Nc1nc2cc(-c3cc[nH]n3)ccc2c2cn(CCNC(=O)COCC(F)(F)F)nc12 [Example 178]
16 | > 100 | 2.63 | > 100 | – | – | – | – | Nc1nc2cc(-c3cc[nH]n3)ccc2c2cn(CCNCc3ccc(Cl)cc3)nc12 [Example 107]
17 | > 100 | 4.44 | > 100 | – | – | – | – | Nc1nc2cc(-c3cc[nH]n3)ccc2c2nn(CCNC(=O)C3CCCCO3)cc12 (stereo not drawn) [Example 199]
18 | – | – | – | > 100 | 2.18 | > 100 | – | CS(=O)(=O)NCCCn1cc2c(N)nc3cc(-c4ccn[nH]4)ccc3c2n1 [Example 586]

Row | EC50 ([1]; activity range class) [µM] | EC50 [2, 4] [µM] | EC50 ([3]; activity range class) [µM] | EC50 ([1]; activity range) [µM] | EC50 [2, 5] [µM] | EC50 ([3]; activity range) [µM] | EC50 ([2]; IL-1β production, human) [µM] | Structure (SMILES)
19 | > 100 | 0.42 | > 100 | – | – | – | – | CCC(O)Cn1cc2c(N)nc3cc(-c4cc[nH]n4)ccc3c2n1 (stereo not drawn) [Example 366]
20 | 1 to 20 | 0.21 | > 100 | – | – | – | – | Cc1cc(Cn2cc3c(n2)c(N)nc2cc(-c4cc[nH]n4)ccc23)no1 [Example 173]
21 | – | – | – | > 100 | 0.45 | > 100 | – | Cc1nc(C(=O)NCCc2cc3c(N)nc4cc(-c5cc[nH]n5)ccc4c3[nH]2)cs1 [Example 495]
22 | > 100 | 0.01 | > 100 | – | – | – | – | Nc1nc2cc(-c3ccn[nH]3)ccc2c2[nH]c(CCNC(=O)c3ccccn3)cc12 [Example 155, N-[2-[4-amino-7-(1H-pyrazol-5-yl)-1H-pyrrolo[3,2-c]quinolin-2-yl]ethyl]pyridine-2-carboxamide]
23 | – | – | – | > 100 | 0.53 | > 100 | – | Cn1cnc(C(=O)NCCc2cc3c(N)nc4cc(-c5cc[nH]n5)ccc4c3[nH]2)c1 [Example 518]
24 | > 100 | 0.63 | 20 to 100 | – | – | – | – | CN(C)CCCn1cc2c(n1)c(N)nc1cc(-c3cc[nH]n3)ccc12 [Example 22]
25 | – | – | – | > 100 | 0.51 | > 100 | – | Nc1nc2cc(-c3cc[nH]n3)ccc2c2[nH]c(CN3CCCC3)cc12 [Example 476]
26 | – | – | – | > 100 | 21.2 | > 100 | – | CC(C)(Cn1cc2c(N)nc3cc(-c4ccn[nH]4)ccc3c2n1)C(=O)NCC1CCOCC1 [Example 602]
27 | – | – | – | > 100 | 0.05 | > 100 | – | Nc1nc2cc(-c3cc[nH]n3)ccc2c2[nH]c(CNCCF)cc12 [Example 496]
28 | > 100 | 2.83 | > 100 | – | – | – | – | CCC(=O)NC(C)Cn1cc2c(N)nc3cc(-c4ccn[nH]4)ccc3c2n1 (stereo not drawn) [Example 297]
29 | > 100 | 0.99 | > 100 | – | – | – | – | CC(C)(F)C(=O)N1CCOCC1Cn1cc2c(N)nc3cc(-c4ccn[nH]4)ccc3c2n1 (stereo not drawn) [Example 264]
30 | – | – | – | > 100 | 0.13 | > 100 | – | Nc1nc2cc(-c3ccn[nH]3)ccc2c2[nH]c(CCCO)cc12 [Example 440]
31 | – | – | – | > 100 | 1.21 | > 100 | – | CC(=O)N[C@H]1CCN(Cc2cc3c(N)nc4cc(-c5cc[nH]n5)ccc4c3[nH]2)C1 [Example 475]
32 | > 100 | 0.08 | > 100 | – | – | – | – | COC(C)Cn1cc2c(N)nc3cc(-c4cc[nH]n4)ccc3c2n1 (stereo not drawn) [Example 331]
33 | > 100 | 0.87 | > 100 | – | – | – | – | Nc1nc2cc(-c3cc[nH]n3)ccc2c2c1cnn2CC1CCCO1 (stereo not drawn) [Example 230]
34 | > 100 | 1.8 | > 100 | – | – | – | – | Cc1nnc(Cn2ncc3c(N)nc4cc(-c5cc[nH]n5)ccc4c32)o1 [Example 244]
35 | > 100 | 2.96 | > 100 | – | – | – | – | Nc1nc2cc(-c3cc[nH]n3)ccc2c2cn(CCNC(=O)c3cccnn3)nc12 [Example 73]
